Assay results reported in US20130217664A1, “NOVEL COMPOUNDS USEFUL FOR THE TREATMENT OF DEGENERATIVE AND INFLAMMATORY DISEASES” (priority 2012, published 2013).

Experiments:
[1] = molecular target: T1, human JAK1 (Homo sapiens, UniProt P23458); assay: JAK1 inhibition assay (polyGT substrate / Ulight-JAK1 peptide); format: biochemical; conditions: recombinant human JAK1 catalytic domain; polyGT or Ulight-JAK1 peptide assay
T1 construct: catalytic domain, amino acids 866-1154; catalog number PV4774; purchased Invitrogen PV4774
T1 sequence (P23458 866-1154): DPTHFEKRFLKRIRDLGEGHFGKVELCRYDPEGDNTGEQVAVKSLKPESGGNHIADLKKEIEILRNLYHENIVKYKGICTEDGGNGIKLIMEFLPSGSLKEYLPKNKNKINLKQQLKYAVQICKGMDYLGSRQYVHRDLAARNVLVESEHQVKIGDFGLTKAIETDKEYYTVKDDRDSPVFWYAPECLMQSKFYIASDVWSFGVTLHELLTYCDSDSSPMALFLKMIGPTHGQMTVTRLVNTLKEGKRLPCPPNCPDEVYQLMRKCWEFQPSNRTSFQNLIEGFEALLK
Summary of the method: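 Two formats. PolyGT radiometric: 45 min at 30 °C, stopped with phosphoric acid, counted as cpm. Ulight-JAK1 peptide: 60 min at room temperature, stopped with Eu-anti-phosphotyrosine/EDTA, read as RFU. Percent inhibition normalised to vehicle and 10 μM staurosporine.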

[2] = molecular target: T2, human JAK2 (Homo sapiens, UniProt O60674); assay: JAK2 inhibition assay (polyGT substrate / Ulight-JAK1 peptide); format: biochemical; conditions: recombinant human JAK2 catalytic domain; polyGT or Ulight-JAK1 peptide assay
T2 construct: catalytic domain (amino acids 808-1132; catalog number PV4210); GST; purchased Invitrogen PV4210
T2 sequence (O60674 808-1132): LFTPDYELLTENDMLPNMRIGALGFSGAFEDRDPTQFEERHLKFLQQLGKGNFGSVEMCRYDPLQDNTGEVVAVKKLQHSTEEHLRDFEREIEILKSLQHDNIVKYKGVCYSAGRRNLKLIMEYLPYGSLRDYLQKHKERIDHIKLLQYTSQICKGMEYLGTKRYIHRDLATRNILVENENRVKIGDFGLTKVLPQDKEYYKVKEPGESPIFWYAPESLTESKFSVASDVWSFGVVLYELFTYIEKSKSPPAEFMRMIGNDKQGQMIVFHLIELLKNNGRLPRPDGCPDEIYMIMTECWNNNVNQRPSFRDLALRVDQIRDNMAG
Method: 1.2 JAK2 Inhibition Assay
1.2.1 JAK2 Assay polyGT Substrate
0.025 mU of JAK2 is incubated with 2.5 μg polyGT substrate (Sigma catalog number P0275) in kinase reaction buffer (5 mM MOPS pH 7.5, 9 mM MgAc, 0.3 mM EDTA, 0.06% Brij and 0.6 mM DTT, 1 μM non-radioactive ATP, 0.25 μCi ^33P-gamma-ATP (GE Healthcare, catalog number AH9968) final concentrations) with or without 5 μL containing test compound or vehicle (DMSO, 1% final concentration), in a total volume of 25 μL, in a polypropylene 96-well plate (Greiner, V-bottom). After 90 min at 30° C., reactions are stopped by adding of 25 μL/well of 150 mM phosphoric acid. […] Plates are washed 6 times with 300 μL per well of a 75 mM phosphoric acid solution and the bottom of the plates is sealed. 40 μL/well of Microscint-20 is added, the top of the plates is sealed and readout is performed using the Topcount (Perkin Elmer). Kinase activity is calculated by subtracting counts per min (cpm) obtained in the presence of a positive control inhibitor (10 μM staurosporine) from cpm obtained in the presence of vehicle. The ability of a test compound to inhibit this activity is determined as:
Percentage inhibition=((cpm determined for sample with test compound present−cpm determined for sample with positive control inhibitor)divided by(cpm determined in the presence of vehicle−cpm determined for sample with positive control inhibitor))*100.
Dose dilution series are prepared for the compounds enabling the testing of dose-response effects in the JAK2 assay and the calculation of the IC50 for each compound.
1.2.2 JAK2 Ulight-JAK1 Peptide Assay
After 60 min at room temperature, reactions were stopped by adding 20 μL/well of detection mixture (1× detection buffer (Perkin Elmer, catalog number CR97-100C), 0.5 nM Europium-anti-phosphotyrosine (PT66) (Perkin Elmer, catalog number AD0068), 10 mM EDTA). […] Kinase activity was calculated by subtracting relative fluorescence units (RFU) obtained in the presence of a positive control inhibitor (10 μM staurosporine) from RFU obtained in the presence of vehicle. The ability of a test compound to inhibit this activity was determined as:
Percentage inhibition=((RFU determined for sample with test compound present−RFU determined for sample with positive control inhibitor)divided by(RFU determined in the presence of vehicle−RFU determined for sample with positive control inhibitor))*100.
Dose dilution series are prepared for compound enabling the testing of dose-response effects in the JAK2 assay and the calculation of the IC50 for the compound. Each compound is routinely tested at concentration of 20 μM followed by a 1/5 serial dilution, 10 points in a final concentration of 1% DMSO. […] The data are expressed as the average IC50 from the assays±standard error of the mean.

Structure (SMILES)	IC50 [1]	IC50 [2]
CCc1cc(C(=O)N2CCC(OC)CC2)ccc1N(C)c1cc2c(cn1)ncn2C [Compound 112, (3-ethyl-4-(methyl(1-methyl-1H-imidazo[4,5-c]pyridin-6-yl)amino)phenyl)(4-methoxypiperidin-1-yl)methanone]	> 1 µM	> 1 µM
CCc1ccc(C(=O)NC)cc1N(C)c1cc2c(cn1)ncn2C [Compound 128, 4-ethyl-N-methyl-3-(methyl(1-methyl-1H-imidazo[4,5-c]pyridin-6-yl)amino)benzamide]	0.101 to 0.5 µM	> 1 µM
COc1ccc(Cc2cc3c(cn2)ncn3C)cc1 [Compound 275, 6-(4-methoxybenzyl)-1-methyl-1H-imidazo[4,5-c]pyridine]	> 1 µM	> 1 µM
CCc1ccc(C(=O)N(C)C)cc1N(C)c1cc2c(cn1)ncn2C [Compound 87, 4-Ethyl-N,N-dimethyl-3-(methyl(1-methyl-1H-imidazo[4,5-c]pyridin-6-yl)amino)benzamide]	0.101 to 0.5 µM	> 1 µM
Cc1c(OCc2ccc(C#N)nc2)cccc1N(C)c1cc2c(cn1)ncn2C [Compound 97, 5-((2-methyl-3-(methyl(1-methyl-1H-imidazo[4,5-c]pyridin-6-yl)amino)phenoxy)methyl) picolinonitrile]	0.101 to 0.5 µM	> 1 µM
COc1ccc(N(C)c2cc3c(cn2)ncn3C)c(C)c1 [Compound 45, N-(4-Methoxy-2-methylphenyl)-N,1-dimethyl-1H-imidazo[4,5-c]pyridin-6-amine]	0.101 to 0.5 µM	> 1 µM
Cc1c(OCc2ccc(Cl)cc2)cccc1N(C)c1cc2c(cn1)ncn2C [Compound 76]	> 1 µM	> 1 µM
CN(c1ccc(OCCO)cc1)c1cc2c(cn1)ncn2C [Compound 19, 2-(4-(methyl(1-methyl-1H-imidazo[4,5-c]pyridin-6-yl)amino)phenoxy)ethanol]	0.101 to 0.5 µM	> 1 µM
CCc1cc(C(=O)N2CCC(N(C)C)C2)ccc1N(C)c1cc2c(cn1)ncn2C (stereo not drawn) [Compound 106, (3-(dimethylamino)pyrrolidin-1-yl)(3-ethyl-4-(methyl(1-methyl-1H-imidazo[4,5-c]pyridin-6-yl)amino)phenyl)methanone]	> 1 µM	> 1 µM
CC(C)CCOc1ccc(N(C)c2cc3c(cn2)ncn3C)cc1 [Compound 21, N-(4-(isopentyloxy)phenyl)-N,1-dimethyl-1H-imidazo[4,5-c]pyridin-6-amine]	0.501 to 1 µM	> 1 µM
CN(c1ccc(OCC2CCCO2)cc1)c1cc2c(cn1)ncn2C (stereo not drawn) [Compound 18, N,1-dimethyl-N-(4-((tetrahydrofuran-2-yl)methoxy)phenyl)-1H-imidazo[4,5-c]pyridin-6-amine]	0.501 to 1 µM	> 1 µM
Cc1c(OCCCC#N)cccc1N(C)c1cc2c(cn1)ncn2C [Compound 66, 4-(2-methyl-3-(methyl(1-methyl-1H-imidazo[4,5-c]pyridin-6-yl)amino)phenoxy)butane nitrile]	0.101 to 0.5 µM	> 1 µM
Cc1noc(C)c1COc1ccc(N(C)c2cc3c(cn2)ncn3C)cc1 [Compound 20, N-(4-((3,5-dimethylisoxazol-4-yl)methoxy)phenyl)-N,1-dimethyl-1H-imidazo[4,5-c]pyridin-6-amine]	> 1 µM	> 1 µM
CCN(c1ccc2oc(C)nc2c1)c1cc2c(cn1)ncn2C [Compound 6, N-ethyl-2-methyl-N-(1-methyl-1H-imidazo[4,5-c]pyridin-6-yl)benzo[d]oxazol-5-amine]	0.501 to 1 µM	> 1 µM
CN(c1ccc(OCc2ccccc2)cc1)c1cc2c(cn1)ncn2C [Compound 14, N-(4-(benzyloxy)phenyl)-N,1-dimethyl-1H-imidazo[4,5-c]pyridin-6-amine]	> 1 µM	> 1 µM
CCN(c1ccc2sc(C)nc2c1)c1cc2c(cn1)ncn2C [Compound 10, N-ethyl-2-methyl-N-(1-methyl-1H-imidazo[4,5-c]pyridin-6-yl)benzo[d]thiazol-5-amine]	> 1 µM	> 1 µM
CCOCCOc1ccc(N(C)c2cc3c(cn2)ncn3C)cc1 [Compound 23, N-(4-(2-ethoxyethoxy)phenyl)-N,1-dimethyl-1H-imidazo[4,5-c]pyridin-6-amine]	0.501 to 1 µM	> 1 µM
CCc1ccc(C(=O)NCc2ccccn2)cc1N(C)c1cc2c(cn1)ncn2C [Compound 125, 4-ethyl-3-(methyl(1-methyl-1H-imidazo[4,5-c]pyridin-6-yl)amino)-N-(pyridin-2-ylmethyl)benzamide]	0.101 to 0.5 µM	> 1 µM
Cc1c(OCCN2CCCC2)cccc1N(C)c1cc2c(cn1)ncn2C [Compound 77, N,1-dimethyl-N-(2-methyl-3-(2-(pyrrolidin-1-yl)ethoxy)phenyl)-1H-imidazo[4,5-c]pyridin-6-amine]	> 1 µM	> 1 µM
Cc1cc(OCc2ccccc2)ccc1N(C)c1cc2c(cn1)ncn2C [Compound 53, N-(4-(benzyloxy)-2-methylphenyl)-N,1-dimethyl-1H-imidazo[4,5-c]pyridin-6-amine]	0.101 to 0.5 µM	> 1 µM
CN(c1cc2c(cn1)ncn2C)c1ccccc1OC(F)(F)F [Compound 49, N,1-dimethyl-N-(2-(trifluoromethoxy)phenyl)-1H-imidazo[4,5-c]pyridin-6-amine]	0.501 to 1 µM	> 1 µM
Cc1cc(OCCN2CCCC2)ccc1N(C)c1cc2c(cn1)ncn2C [Compound 52, N,1-dimethyl-N-(2-methyl-4-(2-(pyrrolidin-1-yl)ethoxy)phenyl)-1H-imidazo[4,5-c]pyridin-6-amine]	0.501 to 1 µM	> 1 µM
Cc1ccc(OCC(=O)N(C)C)cc1N(C)c1cc2c(cn1)ncn2C [Compound 59, N,N-dimethyl-2-(4-methyl-3-(methyl(1-methyl-1H-imidazo[4,5-c]pyridin-6-yl)amino)phenoxy)acetamide]	0.101 to 0.5 µM	> 1 µM
CCc1ccccc1N(c1cc2c(cn1)ncn2C)C1CC1 [Compound 37, N-Cyclopropyl-N-(2-ethylphenyl)-1-methyl-1H-imidazo[4,5-c]pyridin-6-amine]	0.101 to 0.5 µM	> 1 µM
CCc1cc(C(=O)NCCc2ccccc2)ccc1N(C)c1cc2c(cn1)ncn2C [Compound 99, 3-ethyl-4-(methyl(1-methyl-1H-imidazo[4,5-c]pyridin-6-yl)amino)-N-phenethylbenzamide]	0.101 to 0.5 µM	> 1 µM
CCc1cc(C(=O)N2CC(C)(C)C2)ccc1N(C)c1cc2c(cn1)ncn2C [Compound 113, (3,3-dimethylazetidin-1-yl)(3-ethyl-4-(methyl(1-methyl-1H-imidazo[4,5-c]pyridin-6-yl)amino)phenyl)methanone]	> 1 µM	> 1 µM
Cc1c(OCc2ccccc2)cccc1N(C)c1cc2c(cn1)ncn2C [Compound 75, N-(3-(benzyloxy)-2-methylphenyl)-N,1-dimethyl-1H-imidazo[4,5-c]pyridin-6-amine]	0.501 to 1 µM	0.501 to 1 µM
COc1ccccc1N(C)c1cc2c(cn1)ncn2C [Compound 42, N-(2-methoxyphenyl)-N,1-dimethyl-1H-imidazo[4,5-c]pyridin-6-amine]	0.101 to 0.5 µM	> 1 µM
Cc1cc(OCC(=O)N(C)C)ccc1N(C)c1cc2c(cn1)ncn2C [Compound 51, N,N-dimethyl-2-(3-methyl-4-(methyl(1-methyl-1H-imidazo[4,5-c]pyridin-6-yl)amino)phenoxy)acetamide]	> 1 µM	> 1 µM
COCCNC(=O)c1ccc(N(C)c2cc3c(cn2)ncn3C)c(C)c1 [Compound 50, N-(2-methoxyethyl)-3-methyl-4-(methyl(1-methyl-1H-imidazo[4,5-c]pyridin-6-yl)amino)benzamide]	> 1 µM	> 1 µM
